From patent US11976072B2, “Diacylglycerol kinase modulating compounds” (priority 2021, dated 2024) come the findings set out here.

One experiment has as its target human DGKα (Homo sapiens, UniProt P23743). Nature of the experiment: DGKα Biochemical Activity Assay (ADP-Glo).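 Also: luminescent detection of ADP produced as DGKα phosphorylates DAG to phosphatidic acid, IC50 from four-parameter nonlinear curve fit.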 As to conditions: recombinant DGKα 1 nM, 100 μM ATP, 18:1 DAG/POPS/octylglucoside micelles, 1 hour at 25° C.; geometric mean; read-out: HTBS DGKa 1X ATP KM IC50. A general note: In ADP-Glo the light output rises with the ADP produced.
The subject of experiment [1] is Jurkat NFκB-luciferase cells. Description: Jurkat NFκB-Luciferase Assay. The format is cell-based. As to conditions: Homo sapiens; Jurkat NFκB-luciferase cells activated with anti-CD3 antibody (OKT3), 2.5 hrs at 37° C.; geometric mean; read-out: DGK NFKb Luciferase EC50. On the procedure: The day after, the excess antibody was washed out five times with 100 ul/well of assay medium (RPMI supplemented with 10% fetal bovine serum) using a Biotek EL406 instrument and leaving 20 ul of residual volume in each well. Jurkat NFκB-luciferase cells (Promega #) were harvested and diluted to 1 million cells/ml in assay medium. […] Thirty microliters of medium containing the Jurkat NFκB-luciferase cells were then dispensed using a Biotek MicroFlo instrument in each well of the compound-containing plate. […] Forty microliters of One-Glo Ex (Promega) was then added to the assay mixture and luciferase activity was read on a Envision plate reader 7 minutes later.

Sequence of human DGKα (P23743 whole entry): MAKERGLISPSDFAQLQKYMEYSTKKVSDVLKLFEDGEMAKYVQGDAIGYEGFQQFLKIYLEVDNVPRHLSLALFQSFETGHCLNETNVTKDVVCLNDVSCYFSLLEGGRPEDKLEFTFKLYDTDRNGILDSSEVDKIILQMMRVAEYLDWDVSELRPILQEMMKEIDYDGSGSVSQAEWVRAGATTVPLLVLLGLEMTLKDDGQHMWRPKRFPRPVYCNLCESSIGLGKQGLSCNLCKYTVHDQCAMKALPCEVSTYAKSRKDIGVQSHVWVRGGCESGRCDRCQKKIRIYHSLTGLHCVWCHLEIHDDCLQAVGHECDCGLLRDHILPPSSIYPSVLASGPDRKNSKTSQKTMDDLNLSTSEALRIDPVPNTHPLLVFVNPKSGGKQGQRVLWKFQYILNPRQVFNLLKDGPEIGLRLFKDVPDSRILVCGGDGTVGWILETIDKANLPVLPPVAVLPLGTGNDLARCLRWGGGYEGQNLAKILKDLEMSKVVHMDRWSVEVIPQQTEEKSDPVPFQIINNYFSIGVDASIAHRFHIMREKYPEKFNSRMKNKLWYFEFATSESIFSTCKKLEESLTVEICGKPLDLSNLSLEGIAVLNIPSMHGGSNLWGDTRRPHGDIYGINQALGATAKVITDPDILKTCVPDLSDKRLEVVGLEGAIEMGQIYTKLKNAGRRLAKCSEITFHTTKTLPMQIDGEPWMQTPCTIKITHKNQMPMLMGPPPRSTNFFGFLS

Turning to `Cc1nnc2nc(N3CCCCc4c(C#CC5CC5)cncc43)c3c(F)c(F)ccc3n12` [Example 1, 5-(6-(cyclopropylethynyl)-2,3,4,5-tetrahydro-1H-pyrido[3,4-b]azepin-1-yl)-6,7-difluoro-1-methyl-[1,2,4]triazolo[4,3-a]quinazoline], on human DGKα, the IC50 was 15.1 nM. Besides, the EC50 in experiment [1] is 0.897 nM.
In the case of `Cc1nnc2nc(N3CCCCc4c(C#CC(C)(C)C#N)cncc43)c3c(F)c(F)ccc3n12` [Example 2, 4-(1-(6,7-difluoro-1-methyl-[1,2,4]triazolo[4,3-a]quinazolin-5-yl)-2,3,4,5-tetrahydro-1H-pyrido[3,4-b]azepin-6-yl)-2,2-dimethylbut-3-ynenitrile], the IC50 at human DGKα came out at 14.8 nM. Further, in experiment [1], the EC50 was 3.13 nM.
Consider `Cc1nnc2nc(N3CCCCc4c(C#CC5(C(F)(F)F)CC5)cncc43)c3cc(F)ccc3n12` [Example 3, 7-fluoro-1-methyl-5-(6-((1-(trifluoromethyl)cyclopropyl)ethynyl)-2,3,4,5-tetrahydro-1H-pyrido[3,4-b]azepin-1-yl)-[1,2,4]triazolo[4,3-a]quinazoline], for which the IC50 at human DGKα stood at 35.9 nM. Besides, the EC50 in experiment [1] worked out at 1.86 nM.
The corresponding values for `Cc1nnc2nc(N3CCCCc4c(C#CC(C)(C)C#N)cncc43)c3cc(F)ccc3n12` [Example 4, 4-(1-(7-fluoro-1-methyl-[1,2,4]triazolo[4,3-a]quinazolin-5-yl)-2,3,4,5-tetrahydro-1H-pyrido[3,4-b]azepin-6-yl)-2,2-dimethylbut-3-ynenitrile] are 23.9 nM and 6.92 nM.
The corresponding values for `Cc1nnc2nc(N3CCCCc4c(C#CC5(C)CC5)cncc43)c3cc(F)ccc3n12` [Example 5, 7-fluoro-1-methyl-5-(6-((1-methylcyclopropyl)ethynyl)-2,3,4,5-tetrahydro-1H-pyrido[3,4-b]azepin-1-yl)-[1,2,4]triazolo[4,3-a]quinazoline] are 14.5 nM and 1.19 nM.
Taken in the same sequence, the figures for `Cc1nnc2nc(N3CCCCc4c(C#CC5(C)CC5)cncc43)c3c(F)cccc3n12` [Example 6, 6-fluoro-1-methyl-5-(6-((1-methylcyclopropyl)ethynyl)-2,3,4,5-tetrahydro-1H-pyrido[3,4-b]azepin-1-yl)-[1,2,4]triazolo[4,3-a]quinazoline] were 44.1 nM and 0.692 nM.
For the compound `Cc1nnc2nc(N3CCCCc4c(C#CC5(C)CC5)cncc43)c3c(F)c(F)ccc3n12` [Example 7, 6,7-difluoro-1-methyl-5-(6-((1-methylcyclopropyl)ethynyl)-2,3,4,5-tetrahydro-1H-pyrido[3,4-b]azepin-1-yl)-[1,2,4]triazolo[4,3-a]quinazoline], the IC50 at human DGKα was 23.1 nM. Also, in experiment [1], the EC50 was found to be 0.747 nM.
Taken in the same sequence, the figures for `Cc1nnc2nc(N3CCCCc4c(C#CC5(C(F)F)CC5)cncc43)c3c(F)c(F)ccc3n12` [Example 8, 5-(6-((1-(difluoromethyl)cyclopropyl)ethynyl)-2,3,4,5-tetrahydro-1H-pyrido[3,4-b]azepin-1-yl)-6,7-difluoro-1-methyl-[1,2,4]triazolo[4,3-a]quinazoline] were 17.7 nM and 1.65 nM.
The corresponding values for `Cc1nnc2nc(N3CCCCc4c(C#CC5(C(F)(F)F)CC5)cncc43)c3c(F)c(F)ccc3n12` [Example 9, 6,7-difluoro-1-methyl-5-(6-((1-(trifluoromethyl)cyclopropyl)ethynyl)-2,3,4,5-tetrahydro-1H-pyrido[3,4-b]azepin-1-yl)-[1,2,4]triazolo[4,3-a]quinazoline] are 28.5 nM and 1.53 nM.
The corresponding values for `Cc1nnc2nc(N3CCCc4c(C#CC(C)(C)C#N)cncc43)c3c(F)c(F)ccc3n12` [Example 10, 4-(1-(6,7-difluoro-1-methyl-[1,2,4]triazolo[4,3-a]quinazolin-5-yl)-1,2,3,4-tetrahydro-1,7-naphthyridin-5-yl)-2,2-dimethylbut-3-ynenitrile] are 17.2 nM and 5.87 nM.
As to `Cc1nnc2nc(N3CCCc4c(C#CC5(C(F)F)CC5)cncc43)c3c(F)c(F)ccc3n12` [Example 11, 5-(5-((1-(difluoromethyl)cyclopropyl)ethynyl)-3,4-dihydro-1,7-naphthyridin-1(2H)-yl)-6,7-difluoro-1-methyl-[1,2,4]triazolo[4,3-a]quinazoline], the IC50 on human DGKα came out at 13.9 nM. In addition, in experiment [1], the EC50 turned out to be 5.77 nM.
The corresponding values for `Cc1nnc2nc(N3CCCc4c(C#CC5(C(C)(F)F)CC5)cncc43)c3c(F)c(F)ccc3n12` [Example 12, 5-(5-((1-(1,1-difluoroethyl)cyclopropyl)ethynyl)-3,4-dihydro-1,7-naphthyridin-1(2H)-yl)-6,7-difluoro-1-methyl-[1,2,4]triazolo[4,3-a]quinazoline] are 37.3 nM and 1.85 nM.
With `Fc1ccc2c(c(N3CCCc4c(C#CC5CCC5)cncc43)nc3nncn32)c1F` [Example 13, 5-(5-(cyclobutylethynyl)-3,4-dihydro-1,7-naphthyridin-1(2H)-yl)-6,7-difluoro-[1,2,4]triazolo[4,3-a]quinazoline], at human DGKα, the IC50 turned out to be 7.93 nM. In addition, in experiment [1], the EC50 worked out at 1.01 nM.
Taken in the same sequence, the figures for `Fc1ccc2c(c(N3CCCc4c(C#CC5CC(F)(F)C5)cncc43)nc3nncn32)c1F` [Example 14, 5-(5-((3,3-difluorocyclobutyl)ethynyl)-3,4-dihydro-1,7-naphthyridin-1(2H)-yl)-6,7-difluoro-[1,2,4]triazolo[4,3-a]quinazoline] were 8.19 nM and 1.4 nM.
Taken in the same sequence, the figures for `Fc1ccc2c(c(N3CCCc4c(C#CC5(C(F)F)CC5)cncc43)nc3nncn32)c1F` [Example 15, 5-(5-((1-(difluoromethyl)cyclopropyl)ethynyl)-3,4-dihydro-1,7-naphthyridin-1(2H)-yl)-6,7-difluoro-[1,2,4]triazolo[4,3-a]quinazoline] were 7.16 nM and 1.91 nM.
Taken in the same sequence, the figures for `CC(F)(F)C1(C#Cc2cncc3c2CCCN3c2nc3nncn3c3ccc(F)c(F)c23)CC1` [Example 16, 5-(5-((1-(1,1-difluoroethyl)cyclopropyl)ethynyl)-3,4-dihydro-1,7-naphthyridin-1(2H)-yl)-6,7-difluoro-[1,2,4]triazolo[4,3-a]quinazoline] were 22.7 nM and 1.54 nM.
For the compound `Fc1cccc2c1c(N1CCCc3c(C#CC4CC(F)(F)C4)cncc31)nc1nncn12` [Example 17, 5-(5-((3,3-difluorocyclobutyl)ethynyl)-3,4-dihydro-1,7-naphthyridin-1(2H)-yl)-6-fluoro-[1,2,4]triazolo[4,3-a]quinazoline], the IC50 on human DGKα was 14.7 nM. In addition, the EC50 in experiment [1] turned out to be 1.16 nM.
Consider `Fc1cccc2c1c(N1CCCc3c(C#CC4CCC4)cncc31)nc1nncn12` [Example 18, 5-(5-(cyclobutylethynyl)-3,4-dihydro-1,7-naphthyridin-1(2H)-yl)-6-fluoro-[1,2,4]triazolo[4,3-a]quinazoline], for which, at human DGKα, the IC50 was found to be 14.2 nM. Moreover, in experiment [1], the EC50 came to 1.5 nM.
The corresponding values for `Fc1cccc2c1c(N1CCCc3c(C#CC4(C(F)F)CC4)cncc31)nc1nncn12` [Example 19, 5-(5-((1-(difluoromethyl)cyclopropyl)ethynyl)-3,4-dihydro-1,7-naphthyridin-1(2H)-yl)-6-fluoro-[1,2,4]triazolo[4,3-a]quinazoline] are 21.3 nM and 1.53 nM.
The corresponding values for `Cc1nnc2nc(N(CC(F)F)c3cc(F)cc(C#CC4CCOCC4)c3)c3c(F)cccc3n12` [Example 20, N-(2,2-difluoroethyl)-6-fluoro-N-(3-fluoro-5-((tetrahydro-2H-pyran-4-yl)ethynyl)phenyl)-1-methyl-[1,2,4]triazolo[4,3-a]quinazolin-5-amine] are 30.1 nM and 10.3 nM.
`Cc1nnc2nc(N(CC(F)F)c3cc(F)cc(C#CC4(O)CCC4)c3)c3c(F)cccc3n12` [Example 21, 1-((3-((2,2-difluoroethyl)(6-fluoro-1-methyl-[1,2,4]triazolo[4,3-a]quinazolin-5-yl)amino)-5-fluorophenyl)ethynyl)cyclobutan-1-ol]: at human DGKα, the IC50 is 21 nM. In addition, the EC50 in experiment [1] was found to be 9.42 nM.
Consider `Cc1nnc2nc(N(CC(F)F)c3cc(F)cc(C#CC4(C)COC4)c3)c3c(F)cccc3n12` [Example 22, N-(2,2-difluoroethyl)-6-fluoro-N-(3-fluoro-5-((3-methyloxetan-3-yl)ethynyl)phenyl)-1-methyl-[1,2,4]triazolo[4,3-a]quinazolin-5-amine], for which the IC50 at human DGKα amounted to 18.9 nM. For the same compound, in experiment [1], the EC50 was determined as 10.1 nM.
Taken in the same sequence, the figures for `Cc1nnc2nc(N(CC(F)F)c3cc(F)cc(C#CC4COC4)c3)c3c(F)cccc3n12` [Example 23, N-(2,2-difluoroethyl)-6-fluoro-N-(3-fluoro-5-(oxetan-3-ylethynyl)phenyl)-1-methyl-[1,2,4]triazolo[4,3-a]quinazolin-5-amine] were 33.9 nM and 3.46 nM.
The corresponding values for `Cc1nnc2nc(N(CC(F)F)c3cc(F)cc(C#CC4(C)COC4)c3)c3cc(F)ccc3n12` [Example 24, N-(2,2-difluoroethyl)-7-fluoro-N-(3-fluoro-5-((3-methyloxetan-3-yl)ethynyl)phenyl)-1-methyl-[1,2,4]triazolo[4,3-a]quinazolin-5-amine] are 15.1 nM and 4.7 nM.
Taken in the same sequence, the figures for `Cc1nnc2nc(N(CC(F)F)c3cc(F)cc(C#CC4(C(F)F)CC4)c3)c3c(F)cccc3n12` [Example 25, N-(2,2-difluoroethyl)-N-(3-((1-(difluoromethyl)cyclopropyl)ethynyl)-5-fluorophenyl)-6-fluoro-1-methyl-[1,2,4]triazolo[4,3-a]quinazolin-5-amine] were 30.2 nM and 7.37 nM.

What is called IC50 is the concentration that inhibits the measured activity by half. A word on the EC50: it is the concentration needed to bring the measured effect to its halfway point.
